Data reported in patent publication EP2431033A1, “Dronedarone for preventing cardiovascular hospitalization or mortality in patients with lone atrial fibrillation” (SANOFI, priority 2010, dated 2012).

How the values were obtained:
patients without lone AF = test: Post-hoc analysis of EURIDIS, ADONIS and ATHENA trials, patients without lone AF; type: in vivo
From the text: (§1) The present invention is illustrated by data from a post-hoc analysis of patients with lone atrial fibrillation enrolled in the clinical trials called EURIDIS, ADONIS and ATHENA trials with the following endpoints: • cardiovascular hospitalization or death from any cause • cardiovascular hospitalization • all cause mortality • cardiovascular mortality
(§2) Individual data from patients with lone AF enrolled in the EURIDIS, ADONIS and ATHENA trials were entered in a central database. (SAS version 8.2). The institutional review board at each site approved the study, and all patients gave written informed consent for taking part in the studies. In short, common enrolment criterion for these studies was the presence of paroxysmal or persistent AF. Patients with permanent AF or with unstable hemodynamic conditions were excluded from participation.
(§3) Lone AF was defined as AF occurring in patients without structural heart disease or arterial hypertension hypertension (not treated with blood pressure lowering medications), and without extracardiac diseases associated with AF (i.e. thyroid disorders).
(§4) In all 3 studies, patients were randomly assigned to double-blind treatment with dronedarone 400 mg BID or matching placebo. Hospitalisation was defined as at least one overnight stay. The main outcome measure of this post-hoc analysis was the time to the composite endpoint of first hospitalization for cardiovascular reasons or death from any cause, and their individual components.
(§5) Baseline parameters of patients with and without lone AF were compared with logistic regression analysis for qualitative and an ANOVA test for quantitative variables. All outcomes were estimated with the use of the Kaplan-Meier method and compared by means of the log-rank test. […] All P values are two-tailed, and statistical significance was assumed at a p-value of 0.05 or smaller.
(§6) The results obtained in this trial were analysed by the Kaplan Meier method for the figures, and the relative risk (RR) was estimated using Cox's proportional-effect regression model.
(§7) The relative risk (RR) is the ratio of the rates of occurrence of a hospitalization or of a death among the patients on dronedarone, relative to the patients on placebo.

patients with lone AF = test: Post-hoc analysis of EURIDIS, ADONIS and ATHENA trials, patients with lone AF; type: in vivo; details: for Number of patients with endpoint (lone AF): first cardiovascular hospitalization or death from any cause
From the text: as §1, §2, §3, §4, §5, §6, §7

[1] = first cardiovascular hospitalization, patients without lone AF at baseline, 400mg BID
[2] = first cardiovascular hospitalization, patients with lone AF at baseline, 400mg BID
[3] = patients with lone AF, compared to placebo, x = 1-relative risk

## CCCCc1oc2ccc(NS(C)(=O)=O)cc2c1C(=O)c1ccc(OCCCN(CCCC)CCCC)cc1 [Dronedarone, 2-n-Butyl-3-[4-(3-di-n-butylaminopropoxy)benzoyl]-5-methylsulphonamidobenzofuran]
Patients without lone AF; [1]
  Cumulative incidence of events at 1 year: 0.208
  Cumulative incidence of events at 2 years: 0.321
  Cumulative incidence of events at 6 months: 0.135
Patients without lone AF; first cardiovascular hospitalization, patients without lone AF at baseline, vs placebo, cause-specific Cox regression model adjusted on studies
  Relative risk: 0.758
Patients without lone AF; patients with other forms of AF
  reduction of the risk of CV hospitalizations or death: 23%
Patients without lone AF; patients with other forms of AF, dronedarone arm vs placebo arm
  drug discontinuation: more often
Patients with lone AF; ADONIS, 400mg BID, N=64
  Number of patients with endpoint (lone AF): 1 (N=64)
Patients with lone AF; ATHENA, 400mg BID, N=95
  Number of patients with endpoint (lone AF): 26 (N=95)
Patients with lone AF; EURIDIS, 400mg BID, N=81
  Number of patients with endpoint (lone AF): 7 (N=81)
Patients with lone AF; Lone AF population (3 studies pooled), 400mg BID, N=240
  Number of patients with endpoint (lone AF): 34 (N=240)
Patients with lone AF; [2]
  Cumulative incidence of events at 1 year: 0.113
  Cumulative incidence of events at 2 years: 0.195
  Cumulative incidence of events at 6 months: 0.057
Patients with lone AF; first cardiovascular hospitalization, patients with lone AF at baseline, vs placebo, cause-specific Cox regression model adjusted on studies
  Relative risk: 0.543
Patients with lone AF; independent from the AF type
  risks for adverse events between placebo and dronedarone: No difference
Patients with lone AF; lone AF, dronedarone group, out of all cardiovascular hospitalisations
  cardiovascular hospitalisations for AF or other supraventricular arrhythmias: 16 of 30
Patients with lone AF; lone AF, dronedarone vs placebo, 95%CI=0.31-3.43, p=0.885
  All-cause mortality (HR): 1.02
Patients with lone AF; patients with lone AF, compared to placebo, 95%CI=0.34-0.87, p=0.004
  cardiovascular hospitalizations alone, HR: 0.54
Patients with lone AF; patients with lone AF, compared to placebo, 95%CI=0.36-0.88, p=0.004
  cardiovascular hospitalizations or death, hazard ratio (HR): 0.56
Patients with lone AF; [3]
  reduction in cardiovascular hospitalizations alone: 46%
  reduction of cardiovascular hospitalizations or death: 44%
Patients with lone AF; patients with lone AF, dronedarone arm vs placebo arm
  drug discontinuation rate: similar
